Test results reported in patent US20220378790A1, “PHARMACEUTICAL PREPARATION COMPRISING AN AMIDE DERIVATIVE INHIBITING THE GROWTH OF CANCER CELL AND A PHARMACEUTICAL PRODUCT CONTAINING THE SAME” (Hanmi Pharm Co., Ltd., priority 2019, published 2022).

Assay: Stability test at 60° C. severe condition, impurity IV
Assay type: physicochemical
Description: The stability of the tablets of Examples 6 to 9 and Comparative Example 9 above was evaluated. In addition, the stability was evaluated using HM781-36B itself as Comparative Example 11.
Specifically, each of the tablets of Examples 6 to 9 and Comparative Example 9 above was packaged with Formpack® Dessiflex Blister (where to get: amcor), and the HM781-36B of Comparative Example 11 was packaged in an HDPE bottle, and then these were stored for 1, 2, and 4 weeks at a temperature of 60° C., which is a severe condition. The stability evaluation was performed for the samples stored for the above period according to the analysis conditions of Experimental Example 6.

## C=CC(=O)N1CCC(Oc2cc3c(Nc4ccc(Cl)c(Cl)c4F)ncnc3cc2OC)CC1 [Comparative Example 11]
1 week, 60° C.
  Amount of Impurity IV: 0.06%
2 weeks, 60° C.
  Amount of Impurity IV: 0.07%
4 weeks under severe conditions, 60° C.
  Stability (in words): very stable results
4 weeks, 60° C.
  Amount of Impurity IV: 0.07%
Initial, tablets in Formpack Dessiflex Blister, HM781-36B in HDPE bottle
  Amount of Impurity IV: 0.06%
